Experimental data from patent US20100048545A1, “Compounds and Compositions for Use in the Prevention and Treatment of Disorders of Fat Metabolism and Obesity” (INNODIA INC., priority 2006, published 2010).

Assays:
[1] = test system: Diet Induced Obesity (DIO)-Mice; assay type: in vivo
Description: A total of 40 animals were used in the study. The animals were distributed into 5 groups (4 treated, 1 control group, all on high fat diet). Each group was composed of 8 animals.
4-OH was aliquoted and kept at 4° C. […] Mice from groups 4 and 5 were treated twice daily with 50 and 100 mg/kg of compound 65a. All groups were treated by oral gavage. Treatment commenced on Day 0 and ended on Day 7 (FIG. 37A). Body weights were measured daily.

ob/ob mouse = assay: Body weight gain and food consumption of ob/ob mice, 56 days; assay type: in vivo; conditions: 100 mg/kg twice daily
Source text: The objective of this study was to evaluate the effect of chronic administration of 4-hydroxyisoleucine (4-OH, compound 14a) on food consumption and body weight gain in a genetic model of obesity, the ob/ob mouse. Body weight gain and food consumption were monitored for 1 week prior to the commencement of treatment, and then for the 56 days of treatment.
A total of 16 animals were used in the study. The animals were distributed into 2 groups (1 treated, 1 control group, all on standard chow). Each group was composed of 8 animals. The mice were randomized according to body weight values.
For the eight weeks of treatment, the test agent was dissolved in reverse osmosis water. 4-hydroxyisoleucine was aliquoted and kept at 4° C. Control animals received reverse osmosis water twice daily (group 1). Mice from group 2 were treated twice daily with 4-OH at 100 mg/kg. All groups were treated by oral gavage. Treatment commenced on Day 0 and ended on Day 56 (FIGS. 21A and 21B). Food consumption was measured daily and averaged on a weekly basis beginning one week before the start of treatment as shown in FIG. 21B.

[2] = test system: Wistar rat model of diet-induced obesity; assay: Body fat (DEXA) and white adipose tissue weight in Wistar rat model of diet-induced obesity; assay type: in vivo, Wistar rats; conditions: 28 days
Source text: A total of 60 animals were used in the study. The animals were distributed into 6 groups; 1 group was fed standard chow, 1 group was fed a high fat, high sucrose (HFHS) diet with 28 days treatment, 1 untreated control group was fed a HFHS diet, and 1 untreated group was fed a HFHS diet, but with caloric intake restricted to match the caloric intake of the 4-OH treated animals (pair-fed animals). A fifth group was fed a high fat, high sucrose (HFHS) diet with 28 days treatment and received an acute oral administration of 4-OH prior to experimentation on Day 29 of the study, and a sixth group was fed a HFHS diet, but with caloric intake restricted to match the caloric intake of the 4-OH treated animals receiving an acute oral administration of 4-OH on Day 29 of the study (pair-fed animals). Each group was composed of 10 animals. […] Immediately prior to commencement of treatment the animals were evaluated by DEXA scanning (Dual Energy X-ray Absortiometry) to determine the baseline percentage of body weight related to fat. For the four weeks of treatment, the test article (4-OH) was dissolved in reverse osmosis water. 4-OH was aliquoted and kept at 4° C. […] Untreated animals received water twice daily.

C[C@@H]([C@H](C)O)[C@H](N)C(=O)O [Compound 14a, (2S,3R,4S)-4-Hydroxyisoleucine]
tolerability of treatment ([1]; 50 and 100 mg/kg twice daily oral gavage, one week): well tolerated | weight gain ([1]; 50 and 100 mg/kg twice daily, first week of treatment): moderation of weight gain was observed | food consumption ([1]; first week of treatment): slight decrease in food consumption | food consumption (ob/ob mouse): slight decrease in food consumption during the first three weeks of treatment | weight gain (ob/ob mouse; Day 21 to Day 56, vs control group): significantly reduced | weight gain (ob/ob mouse; course of treatment): moderation of weight gain was observed | tolerability of treatment (ob/ob mouse; oral gavage, 56 days): well tolerated | percentage change in fat composition relative to baseline (DEXA) ([2]; 100 mg/kg twice daily oral, HFHS ad libitum, p<0.01): significant reduction in percentage fat | weight of white adipose tissues compared with normal chow animals ([2]; 100 mg/kg twice daily): the same as untreated animals receiving normal chow | weight of white adipose tissue (epididymal, inguinal and retroperitoneal) ([2]; 100 mg/kg twice daily, vs pair fed untreated and HFHS controls): significant reduction in the weight of these tissues
